Measurements reported in patent publication US9815796B2 (Merck Sharp & Dohme Corp., priority 2013, dated 2017).
Like-named read-outs stand apart in the source and are kept apart here.

How the values were obtained:
Rhesus PDE2A3 = Rhesus PDE2A3 (Macaca mulatta, UniProt B3VTJ2); test: PDE2 fluorescence polarization (IMAP FP) inhibition assay, rhesus enzyme; assay type: biochemical, rhesus macaque
In short: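 IMAP FP (mP from parallel and perpendicular fluorescence against substrate-only control) was read ≥1 h after adding binding reagent. The preceding 60 min room-temperature reaction contained FAM-cAMP (50 nM) and cGMP (1 uM) in pH 7.2 Tris buffer with MgCl2 and DTT. Enzyme was supernatant of sonicated AD293 cells expressing rhesus PDE2A3; compounds were 3-fold titrated, DMSO 1% final.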

human PDE2A1 = human PDE2A1 (Homo sapiens (Human), UniProt O00408); test: IMAP FP PDE selectivity panel, human PDE2A1; assay type: biochemical; conditions: Human PDE2, Lab B; read-out: Human PDE2 Ki (nM) - Lab B
In short: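 IMAP FP format: substrate 50 nM FAM-cAMP plus 1000 nM cGMP, enzyme (insect-cell GST-tagged human PDE2A1) at ~20% conversion, 60 min reaction at room temperature. Apparent inhibition constants calculated from parallel/perpendicular fluorescence with KM 10,000 nM.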

[1] = Rhesus PDE2, Lab B, read-out: Rhesus PDE2 Ki (nM) - Lab B

Sequence of Rhesus PDE2A3 (B3VTJ2 1-941): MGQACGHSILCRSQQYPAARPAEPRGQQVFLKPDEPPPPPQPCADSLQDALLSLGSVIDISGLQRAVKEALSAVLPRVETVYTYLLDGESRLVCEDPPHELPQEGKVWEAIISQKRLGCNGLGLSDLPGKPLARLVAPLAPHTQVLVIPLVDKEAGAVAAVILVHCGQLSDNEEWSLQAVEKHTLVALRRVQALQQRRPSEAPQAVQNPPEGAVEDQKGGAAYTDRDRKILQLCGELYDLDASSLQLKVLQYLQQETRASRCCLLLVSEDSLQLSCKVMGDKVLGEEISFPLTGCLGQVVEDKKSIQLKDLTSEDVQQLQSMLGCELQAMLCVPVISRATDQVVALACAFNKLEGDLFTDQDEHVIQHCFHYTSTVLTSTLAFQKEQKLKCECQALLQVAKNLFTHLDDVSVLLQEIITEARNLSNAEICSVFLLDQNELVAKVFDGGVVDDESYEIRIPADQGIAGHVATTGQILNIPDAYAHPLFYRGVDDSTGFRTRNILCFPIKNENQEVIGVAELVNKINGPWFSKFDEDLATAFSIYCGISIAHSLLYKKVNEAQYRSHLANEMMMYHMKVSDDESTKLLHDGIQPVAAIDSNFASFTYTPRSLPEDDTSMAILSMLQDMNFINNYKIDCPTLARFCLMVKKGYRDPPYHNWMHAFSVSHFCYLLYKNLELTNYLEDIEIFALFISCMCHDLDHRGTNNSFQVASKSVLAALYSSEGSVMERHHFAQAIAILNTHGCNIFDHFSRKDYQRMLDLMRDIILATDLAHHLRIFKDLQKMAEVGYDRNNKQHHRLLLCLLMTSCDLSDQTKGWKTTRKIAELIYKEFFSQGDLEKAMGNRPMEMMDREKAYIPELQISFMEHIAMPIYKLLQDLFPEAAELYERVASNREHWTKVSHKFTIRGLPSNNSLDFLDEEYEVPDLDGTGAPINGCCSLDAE
Sequence of human PDE2A1 (O00408 other isoform, or with tags, fused parts or gaps): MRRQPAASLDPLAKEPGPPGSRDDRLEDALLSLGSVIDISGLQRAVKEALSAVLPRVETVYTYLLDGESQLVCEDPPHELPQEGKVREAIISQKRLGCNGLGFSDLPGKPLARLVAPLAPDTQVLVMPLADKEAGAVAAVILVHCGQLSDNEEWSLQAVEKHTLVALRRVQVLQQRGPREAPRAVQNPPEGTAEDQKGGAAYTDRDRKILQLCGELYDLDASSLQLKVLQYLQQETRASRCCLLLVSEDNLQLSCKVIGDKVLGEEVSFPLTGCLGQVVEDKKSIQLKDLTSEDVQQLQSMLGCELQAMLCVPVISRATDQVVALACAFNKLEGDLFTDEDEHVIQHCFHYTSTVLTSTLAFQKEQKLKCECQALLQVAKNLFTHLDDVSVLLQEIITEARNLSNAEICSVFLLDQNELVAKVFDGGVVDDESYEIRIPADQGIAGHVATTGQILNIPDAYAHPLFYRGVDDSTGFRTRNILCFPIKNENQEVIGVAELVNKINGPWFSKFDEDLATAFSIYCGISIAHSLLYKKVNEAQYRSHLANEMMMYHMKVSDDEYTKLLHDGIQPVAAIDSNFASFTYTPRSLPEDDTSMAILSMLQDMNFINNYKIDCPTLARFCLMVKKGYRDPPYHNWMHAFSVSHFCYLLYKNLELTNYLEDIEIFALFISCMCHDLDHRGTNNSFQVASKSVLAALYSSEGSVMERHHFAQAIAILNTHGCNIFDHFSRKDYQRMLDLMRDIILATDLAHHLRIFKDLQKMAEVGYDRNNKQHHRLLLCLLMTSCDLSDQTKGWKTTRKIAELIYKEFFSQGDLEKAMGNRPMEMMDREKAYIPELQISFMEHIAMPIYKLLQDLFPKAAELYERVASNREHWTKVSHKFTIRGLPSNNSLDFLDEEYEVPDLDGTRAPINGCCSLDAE

Ki (Rhesus PDE2A3; [1]) [nM]	Ki (human PDE2A1) [nM]	Ki (Rhesus PDE2A3; Rhesus PDE2, Lab A, read-out: Rhesus PDE2 Ki (nM) - Lab A) [nM]	Compound
38	29		O=C(NC1(c2ccc(C(F)(F)F)cc2)COC1)c1cc(=O)[nH]c(-c2ccccc2)n1 [Example 402, 6-oxo-2-phenyl-N-{3-[4-(trifluoromethyl)phenyl]oxetan-3-yl}-1,6-dihydropyrimidine-4-carboxamide]
9.5	6.5		O=C(N[C@@H](c1ccc(S(F)(F)(F)(F)F)cc1)C1CC1)c1cc(=O)[nH]c(-c2ccccc2)n1 [Example 404, N-{(R)-cyclopropyl[4-(pentafluoro-λ^6-sulfanyl)phenyl]methyl}-6-oxo-2-phenyl-1,6-dihydropyrimidine-4-carboxamide]
17	15		Cc1nc(C(=O)N[C@@H](c2ccc(S(F)(F)(F)(F)F)cc2)C2CC2)cc(=O)[nH]1 [Example 405, N-{(R)-cyclopropyl[4-(pentafluoro-λ^6-sulfanyl)phenyl]methyl}-2-methyl-6-oxo-1,6-dihydropyrimidine-4-carboxamide]
4.5	3.6		CC(C)[C@@H](NC(=O)c1cc(=O)[nH]c(-c2ccccc2)n1)c1ccc(SC(F)(F)F)c(F)c1 [Example 407, N-[(1R)-1-{3-fluoro-4-[(trifluoromethyl)sulfanyl]phenyl}-2-methylpropyl]-6-oxo-2-phenyl-1,6-dihydropyrimidine-4-carboxamide]
17	11		C[C@@H](NC(=O)c1cc(=O)[nH]c(-c2ccccc2)n1)c1ccc(C(F)(F)F)c(F)c1F [Example 408, N-{(1R)-1-[2,3-difluoro-4-(trifluoromethyl)phenyl]ethyl}-6-oxo-2-phenyl-1,6-dihydropyrimidine-4-carboxamide]
9.9	10		O=C(N[C@@H](c1ccc(S(F)(F)(F)(F)F)cc1)C1CC1)c1cc(=O)[nH]c(-c2ncccn2)n1 [Example 412, N-{(R)-cyclopropyl[4-(pentafluoro-λ^6-sulfanyl)phenyl]methyl}-6-oxo-1,6-dihydro-2,2′-bipyrimidine-4-carboxamide]
105	126		N#CC(NC(=O)c1cc(=O)[nH]c(-c2ccccc2)n1)c1ccc(C(F)(F)F)cc1 (stereo not shown) [Example 413, N-{cyano[4-(trifluoromethyl)phenyl]methyl}-6-oxo-2-phenyl-1,6-dihydropyrimidine-4-carboxamide]
29	30		O=C(NC1(c2ccc(C(F)(F)F)cc2)CCCC1)c1cc(=O)[nH]c(-c2ccccc2)n1 [Example 415, 6-oxo-2-phenyl-N-{1-[4-(trifluoromethyl)phenyl]cyclopentyl}-1,6-dihydropyrimidine-4-carboxamide]
12	9.8		O=C(N[C@@H](c1ccc(SC(F)(F)F)c(F)c1)C1CC1)c1cc(=O)[nH]c(-c2ccccc2)n1 [Example 417, N-[(R)-cyclopropyl{3-fluoro-4-[(trifluoromethyl)sulfanyl]phenyl}methyl]-6-oxo-2-phenyl-1,6-dihydropyrimidine-4-carboxamide]
48	41		C[C@@H](NC(=O)c1cc(=O)[nH]c(-c2ccccc2)n1)c1ccc(Cl)cc1 [Example 418, N-[(1R)-1-(4-chlorophenyl)ethyl]-6-oxo-2-phenyl-1,6-dihydropyrimidine-4-carboxamide]
3.3	2.9		CC(C)[C@@H](NC(=O)c1cc(=O)[nH]c(-c2ccccc2)n1)c1ccc(SC(F)(F)F)cc1 [Example 419, N-[(1R)-2-methyl-1-{4-[(trifluoromethyl)sulfanyl]phenyl}pro-pyl]-6-oxo-2-phenyl-1,6-dihydropyrimidine-4-carboxamide]
7.3	5.9		CC[C@@H](NC(=O)c1cc(=O)[nH]c(-c2ccccc2)n1)c1ccc(C(F)(F)F)c(F)c1 [Example 420, N-{(1R)-1-[3-fluoro-4-(trifluoromethyl)phenyl]propyl}-6-oxo-2-phenyl-1,6-dihydropyrimidine-4-carboxamide]
14	9.4		O=C(NC(CCO)c1ccc(C(F)(F)F)cc1)c1cc(=O)[nH]c(-c2ccccc2)n1 (stereo not shown) [Example 421, N-{3-hydroxy-1-[4-(trifluoromethyl)phenyl]propyl}-6-oxo-2-phenyl-1,6-dihydropyrimidine-4-carboxamide]
	5.6	3	C[C@@H](NC(=O)c1cc(=O)[nH]c(-c2ccccc2)n1)c1ccc(C2CC2)cc1 [Example 423, N-[(1R)-1-(4-cyclopropylphenyl)ethyl]-6-oxo-2-phenyl-1,6-dihydropyrimidine-4-carboxamide]
7.2	9.2		Cc1nc(C(=O)N[C@@H](c2ccc(S(F)(F)(F)(F)F)cc2)C2(C)CC2)cc(=O)[nH]1 [Example 424, 2-methyl-N-{(R)-(1-methylcyclopropyl)[4-(pentafluoro-λ^6-sulfanyl)phenyl]methyl}-6-oxo-1,6-dihydropyrimidine-4-carboxamide]
29	30		Cc1nc(C(=O)N[C@@H](c2ccc(OC(F)F)cc2)C2(C)CC2)cc(=O)[nH]1 [Example 425, N-[(R)-[4-(difluoromethoxy)phenyl](1-methylcyclopropyl)methyl]-2-methyl-6-oxo-1,6-dihydropyrimidine-4-carboxamide]
9.1	9.5		Cc1nc(C(=O)N[C@@H](c2ccc(C3CC3)c(F)c2)C2CC2)cc(=O)[nH]1 [Example 426, N-[(R)-cyclopropyl(4-cyclopropyl-3-fluorophenyl)methyl]-2-methyl-6-oxo-1,6-dihydropyrimidine-4-carboxamide]
3.7	3.7		Cc1nc(C(=O)N[C@@H](c2ccc(C(C)C)cc2)C2(C)CC2)cc(=O)[nH]1 [Example 427, 2-methyl-N-{(R)-(1-methylcyclopropyl)[4-(1-methylethyl)phenyl]methyl}-6-oxo-1,6-dihydropyrimidine-4-carboxamide]
1.9	1.8		Cc1nc(C(=O)N[C@@H](c2ccc(C3CC3)c(F)c2)C(C)(C)C)cc(=O)[nH]1 [Example 428, N-[(1R)-1-(4-cyclopropyl-3-fluorophenyl)-2,2-dimethylpropyl]-2-methyl-6-oxo-1,6-dihydropyrimidine-4-carboxamide]
6.7	7.9		O=C(N[C@@H](c1ccc(SC(F)(F)F)c(F)c1)C1CC1)c1cc(=O)[nH]c(C2CC2)n1 [Example 434]
1.1	0.78		CC(C)(C)[C@@H](NC(=O)c1cc(=O)[nH]c(C2CC2)n1)c1ccc(C2CC2)c(F)c1 [Example 435, 2-cyclopropyl-N-[(1R)-1-(4-cyclopropyl-3-fluorophenyl)-2,2-dimethylpropyl]-6-oxo-1,6-dihydropyrimidine-4-carboxamide]
3.5	3.2		CC(C)(C)[C@@H](NC(=O)c1cc(=O)[nH]c(C2CC2)n1)c1ccc(OC(F)F)cc1 [Example 436, 2-cyclopropyl-N-{(1R)-1-[4-(difluoromethoxy)phenyl]-2,2-dimethylpropyl}-6-oxo-1,6-dihydropyrimidine-4-carboxamide]
1.2	1.2		CC(C)(C)[C@@H](NC(=O)c1cc(=O)[nH]c(C2CC2)n1)c1ccc(OC(F)(F)F)c(F)c1 [Example 437, 2-cyclopropyl-N-{(1R)-1-[3-fluoro-4-(trifluoromethoxy)phenyl]-2,2-dimethylpropyl}-6-oxo-1,6-dihydropyrimidine-4-carboxamide]
1.5	1.3		CC(C)(C)[C@@H](NC(=O)c1cc(=O)[nH]c(C2CC2)n1)c1ccc(C(F)(F)F)c(F)c1 [Example 438, 2-cyclopropyl-N-{(1R)-1-[3-fluoro-4-(trifluoromethyl)phenyl]-2,2-dimethylpropyl}-6-oxo-1,6-dihydropyrimidine-4-carboxamide]
1	1.3		CC(C)(C)[C@@H](NC(=O)c1cc(=O)[nH]c(C2CC2)n1)c1ccc(SC(F)(F)F)cc1 [Example 439, 2-cyclopropyl-N-[(1R)-2,2-dimethyl-1-{4-[(trifluoromethyl)sulfanyl]phenyl}pro-pyl]-6-oxo-1,6-dihydropyrimidine-4-carboxamide]
51	60		C[C@@H](NC(=O)c1cc(=O)[nH]c(C2CC2)n1)c1cc(F)c(C(F)(F)F)cc1F [Example 440, 2-cyclopropyl-N-{(1R)-1-[2,5-difluoro-4-(trifluoromethyl)phenyl]ethyl}-6-oxo-1,6-dihydropyrimidine-4-carboxamide]
3.8	6.4		CC(C)(C)[C@@H](NC(=O)c1cc(=O)[nH]c(C2CC2)n1)c1ccc(CC(F)(F)F)cc1 [Example 441, 2-cyclopropyl-N-{(1R)-2,2-dimethyl-1-[4-(2,2,2-trifluoroethyl)phenyl]propyl}-6-oxo-1,6-dihydropyrimidine-4-carboxamide]
8	7		CC1([C@@H](NC(=O)c2cc(=O)[nH]c(C3CC3)n2)c2ccc(OC(F)F)cc2)CC1 [Example 443, 2-cyclopropyl-N-[(1R)-[4-(difluoromethoxy)phenyl](1-methylcyclopropyl)methyl]-6-oxo-1,6-dihydropyrimidine-4-carboxamide]
2	2.5		CC(C)c1ccc([C@H](NC(=O)c2cc(=O)[nH]c(C3CC3)n2)C2(C)CC2)cc1 [Example 444, 2-cyclopropyl-N-{(R)-(1-methylcyclopropyl)[4-(1-methylethyl)phenyl]methyl}-6-oxo-1,6-dihydropyrimidine-4-carboxamide]
